The conditions of data set [1]: general statement, no test described; cited from earlier work.
For data set [2] the following is noted: intravenous bolus (30 μg/kg) followed by 4-μg/kg/min infusion; cited from earlier work.
Data set [3] has as its system Staphylococcus aureus IE clinical isolate. As to the kind of experiment: Haemolytic activity of culture supernatant on human red blood cells, IE strain. In kind it is cell-based. The following applies: IE strain grown with 0.5 μg/mL up to exponential phase; supernatant on red blood cells 30 minutes. Here is the method: (§1) Staphylococcus aureus strains included previously characterized infective endocarditis (IE) clinical isolate (Liesenborghs L, Meyers S, Lox M, Criel M, Claes J, Peetermans M, Trenson S, Vande Velde G, Vanden Berghe P, Baatsen P, et al. Staphylococcus aureus endocarditis: distinct mechanisms of bacterial adhesion to damaged and inflamed heart valves. Eur Heart J 2019; 40:3248-3259) or JE2 (USA300 MRSA). Bacteria were grown in Tryptic soy broth (TSB, Sigma) under agitation (200 rpm) at 37° C. Prior to all experiments, a single colony from TSA plates was used to inoculate 4 mL of TSB in 15-mL polystyrene tubes and bacteria were grown overnight. Liquid cultures were then diluted 100-fold in 20 mL of fresh TSB and aliquoted in new tubes. For tetrasodium cangrelor treatment, different concentrations of the drug were added to the corresponding tubes. Tetrasodium cangrelor was dissolved in the culture medium, i.e. Tryptic soy broth which comprises proteins and nutrients for growing bacteria, more particularly: casein, soya peptone, sodium chloride, dipotassium phosphate, dextrose, water. […]
(§2) Freshly drawn citrate anticoagulated blood from healthy volunteers was centrifugated for 15 minutes at 1,000×g. […] Haemolytic activity was determined in supernatants by measuring the absorbance at 570 nm in a spectrophotometer. […]

Data set [4] deals with JE2 S. aureus. Kind of data set: Bacterial growth curve. In kind it is cell-based, Staphylococcus aureus. The settings on record: 1 μg/ml, 20 μg/ml and 40 μg/ml, 7 hours, OD 595 nm (FIG. 7). Here is the method:
(§3) A bacterial growth curve and metabolic activity profile was obtained of exponential phase JE2 bacteria following treatment with different concentrations of cangrelor 1 μg/ml, 20 μg/ml and 40 μg/ml. The bacterial growth curve was obtained via a kinetic reading using a spectrophotometer, reading every 10 minutes for 7 hours at an optical density of 595 nm with continuous shaking. The metabolic activity profile was obtained using a Calscreener™ (Symcel), which measures the metabolic response over time (15 hours) in presence of the different concentrations of cangrelor. […] While cangrelor cannot inhibit the bacterial growth of JE2, it can inhibit virulence factors production by this strain upon treatment using a clinically relevant dose of 1 μg/ml.

The test system of data set [5] is JE2 S. aureus. As to the kind of experiment: Staphyloxanthin production, JE2 strain. It counts as cell-based, Staphylococcus aureus. The settings on record: 1.0 μg/ml (FIG. 4). The protocol:
as §1
(§4) Bacteria pellets from overnight culture were resuspended in 400 μL methanol and incubated for 30 minutes at 37° C. under gentle agitation on a table shaker. […] Pigment intensity in supernatants was analyzed by measuring the absorbance at 470 nm. […]

Data set [6] deals with JE2 S. aureus. Kind of data set: Bacterial adhesion to fibrinogen. The following applies: JE2 grown with 1 μg/ml (FIG. 6). In kind it is cell-based, Staphylococcus aureus. Here is the method:
(§5) Staphylococcus aureus JE2 (USA300 MRSA) in exponential growth phase, non-treated or treated with cangrelor at 1 μg/ml were stained with 30 μg/ml 5(6)-Carboxyfluorescein N-hydroxysuccinimide ester (Sigma-Aldrich) in phosphate-buffered saline (PBS) for 30 minutes at room temperature on a shaker. After incubation, bacteria were centrifuged for 5 minutes at 14,000×g and the supernatant was removed. Next, a washing step was performed by resuspending the bacteria in PBS and removing PBS after centrifugation (5 minutes at 14,000×g). The bacterial pellet was then resuspended in 100 μl of 6% bovine serum albumin (BSA). The stained bacteria were kept on ice until further use in the Von Willebrand factor (VWF) adhesion assay and fibrinogen (Fg) adhesion assay.
96-well plates (cellstar, greiner) were coated with human plasma fibrinogen (Fg, Merck) for 24 hours at room temperature, followed by a washing step with PBS. Next, a blocking step with 2% BSA for 1 hour was done followed by a wash step with PBS. Labelled bacteria in exponential phase were then diluted in TSB medium to obtain 10^9 CFU/ml of labelled bacteria. […] Bacterial adhesion was then quantified using a spectrophotometer (multi-mode microplate reader FilterMax F5, molecular devices) Ex.:485 nm and em.:535 nm, a surface scan of the wells was performed. […]

Data set [7] deals with methicillin-resistant JE2 (USA300) Staphylococcus aureus strain. As to the kind of experiment: Haemolytic activity of culture supernatant on human red blood cells, JE2 strain. It counts as cell-based. The settings on record: JE2 (USA300) grown with 1 μg/mL up to stationary phase; supernatant on red blood cells 30 minutes. Here is the method:
as §1, §2

Data set [8] has as its system JE2 S. aureus. Kind of data set: Bacterial metabolic activity (Calscreener). It counts as cell-based, Staphylococcus aureus. The settings on record: 1 μg/ml, 20 μg/ml and 40 μg/ml, 15 hours (FIG. 8). The protocol:
as §3

The subject of data set [9] is Staphylococcus aureus IE clinical isolate. As to the kind of experiment: Staphyloxanthin production, IE strain. It counts as cell-based. The settings on record: IE strain grown with 0.5 μg/mL up to exponential phase (FIG. 3). The protocol:
as §1, §4

Data set [10] has as its system JE2 S. aureus. Kind of data set: Bacterial adhesion to Von Willebrand factor under flow. In kind it is cell-based, Staphylococcus aureus. The following applies: JE2 grown with 1 μg/ml; shear rate 1000 s^-1 for 10 minutes (FIG. 5). The protocol:
as §5, with “assay. […]” for “assay.”
After perfusion, the coverslip was removed from the system and washed with PBS, followed by a fixation step with 4% paraformaldehyde (PFA, miliporefore, Merck) for 10 minutes. […] Confocal microscopy was performed at a 40× magnification and fluorescence intensity was measured with QuPath software (Bankhead, P. et al. QuPath: Open source software for digital pathology image analysis. Sci. Rep. 7, 1-7 (2017)). A quantification of bacteria adhesion to VWF was determined by determining the percentage of positive pixels, corresponding to the fluorescent signal and bacterial adhesion.

For the compound `CCCSc1nc(N[C@@H]2C[C@H]2c2ccc(F)c(F)c2)c2nnn([C@@H]3C[C@H](OCCO)[C@@H](O)[C@H]3O)c2n1` [Ticagrelor], in data set [1], the “solubility in an aqueous environment or medium” value was “generally not soluble”.
Take `CSCCNc1nc(SCCC(F)(F)F)nc2c1ncn2[C@@H]1O[C@H](COP(=O)(O)OP(=O)(O)C(Cl)(Cl)P(=O)(O)O)C(O)C1O` (stereo partly shown) [tetrasodium cangrelor]: the “steady state concentration of the drug reached in patient” value in [2] is 0.5 µg/mL. Further, the “loss of supernatant haemolytic activity as compared to vehicle control (set to 100%)” value in data set [3] was 90%.
In the case of `CSCCNc1nc(SCCC(F)(F)F)nc2c1ncn2[C@@H]1O[C@H](COP(=O)(O)OP(=O)(O)C(Cl)(Cl)P(=O)(O)O)[C@@H](O)[C@H]1O` [cangrelor], in the data set with JE2 S. aureus [4], the “bacterial growth (AUC of growth curve) as compared to vehicle control” value was “could not affect”. Besides, the “loss of bacteria staphyloxanthin production as compared to vehicle control (set to 100%)” value (in the data set with JE2 S. aureus [5]; in data set [9]) was 90% throughout. For the same compound, the “bacterial adhesion to fibrinogen as compared to vehicle control” value in the data set on JE2 S. aureus [6] was “reduction”. In addition, in [7], the “loss of supernatant haemolytic activity as compared to vehicle control (set to 100%)” value is on record as “complete loss”. Besides, in the data set with JE2 S. aureus [8], the “bacterial metabolic activity as compared to vehicle control” value was “could not affect”. For the same compound, in the data set with JE2 S. aureus [10], the “bacterial adhesion to Von Willebrand factor under flow as compared to vehicle control” value was “reduction”.

(Values after patent US20250302834A1, “N-ALKYL-2-SUBSTITUTED ATP ANALOGUES FOR USE AS ANTIBACTERIAL AGENT” (UNIVERSITÉ DE LIÈGE, priority 2022, published 2025).)
